Laboratory results: patent US12703706B2, “Anthelmintic compounds comprising a thienopyridine structure” (Intervet Inc., priority 2020, dated 2026)
pEC50: −log10 of the molar value.

What follows are compounds tested against human Maxi K channel (BK channel), KCNMA1 (KCa1.1) and beta1 (KCNMB1) subunits (Homo sapiens, UniProt Q12791).
Chain of human Maxi K channel (BK channel), KCNMA1 (KCa1.1) and beta1 (KCNMB1) subunits (Q12791 1-1178 isoform Q12791-5): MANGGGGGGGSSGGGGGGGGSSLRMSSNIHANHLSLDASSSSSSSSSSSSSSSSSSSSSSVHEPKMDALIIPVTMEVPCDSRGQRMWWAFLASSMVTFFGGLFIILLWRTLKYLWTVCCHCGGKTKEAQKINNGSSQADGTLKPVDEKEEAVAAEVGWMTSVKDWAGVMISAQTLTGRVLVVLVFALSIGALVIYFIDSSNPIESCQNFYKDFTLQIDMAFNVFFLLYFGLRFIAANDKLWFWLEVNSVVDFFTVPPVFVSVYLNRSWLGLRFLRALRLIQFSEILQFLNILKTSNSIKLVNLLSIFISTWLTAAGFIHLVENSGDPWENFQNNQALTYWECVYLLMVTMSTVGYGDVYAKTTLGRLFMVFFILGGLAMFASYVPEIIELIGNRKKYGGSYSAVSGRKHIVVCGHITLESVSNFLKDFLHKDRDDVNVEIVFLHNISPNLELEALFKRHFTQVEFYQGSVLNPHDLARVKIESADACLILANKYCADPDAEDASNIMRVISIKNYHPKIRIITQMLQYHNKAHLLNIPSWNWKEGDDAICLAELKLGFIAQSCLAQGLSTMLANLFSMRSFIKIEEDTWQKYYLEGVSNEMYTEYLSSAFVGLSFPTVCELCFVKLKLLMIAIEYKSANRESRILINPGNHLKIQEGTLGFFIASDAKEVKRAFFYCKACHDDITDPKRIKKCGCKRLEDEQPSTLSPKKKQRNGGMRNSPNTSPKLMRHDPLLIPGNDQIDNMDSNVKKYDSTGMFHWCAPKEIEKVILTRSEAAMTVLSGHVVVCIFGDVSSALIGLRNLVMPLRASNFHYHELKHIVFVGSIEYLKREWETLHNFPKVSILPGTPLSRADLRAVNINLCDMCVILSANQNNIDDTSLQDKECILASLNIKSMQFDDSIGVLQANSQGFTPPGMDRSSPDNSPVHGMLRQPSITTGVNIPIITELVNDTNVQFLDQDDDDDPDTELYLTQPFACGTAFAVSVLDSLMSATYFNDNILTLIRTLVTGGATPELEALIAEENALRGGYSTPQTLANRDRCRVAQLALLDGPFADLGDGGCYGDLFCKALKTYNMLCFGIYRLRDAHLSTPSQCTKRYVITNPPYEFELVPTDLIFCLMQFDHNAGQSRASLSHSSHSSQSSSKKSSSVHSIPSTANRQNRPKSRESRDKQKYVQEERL
Chain of human Maxi K channel (BK channel), KCNMA1 (KCa1.1) and beta1 (KCNMB1) subunits (Q16558 whole entry partner): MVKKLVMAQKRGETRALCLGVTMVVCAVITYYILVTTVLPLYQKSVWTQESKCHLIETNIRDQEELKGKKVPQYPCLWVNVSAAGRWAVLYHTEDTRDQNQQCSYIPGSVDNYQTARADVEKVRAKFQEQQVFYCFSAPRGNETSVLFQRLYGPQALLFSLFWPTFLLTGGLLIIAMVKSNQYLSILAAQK
Description: In Vitro Assay: Agonistic Activity at the Human Maxi K Channel (BK Channel)
A CHO K1 cell line was stably transfected with the KCNMA1 (KCa1.1, U11058) and betal (KCNMB1) subunits of the human Maxi K channel (Ponte et al, Molecular Pharmacology 2012, 81(4), 567-577).
Cells were seeded in microtiter plates (black 384-well MTP, clear bottom) in a concentration of 20,000 cells/well in 25 μl medium and cultured for 20 to 24 hours at 37° C. and 5% CO2. After incubation, 25 μl of FMP-dye Blue-Tyrode's was added to each well and incubated at room temperature for 30 min. Ten minutes after addition of 12.5 μl compound solution, the plates are transferred to the FLIPR for measurement.
For the membrane potential measurements, plates were placed in the FLIPR Penta (Molecular Devices). The baseline measurement of the fluorescence was stared for 20 sec (Exc. 510-545 nm, Emm. 565-625 nm). Potential channel opening measurement was started by addition of 25 μl KCl-Tyrode (final assay concentration of the KCl-Tyrode: 70 mM KCl, 2 mM CaCl2, 1 mM MgCl2, 0.8 mM NaH2PO4, 5 mM Glucose, 28 mM Hepes, pH 7.4, including the voltage sensitive dye). The complete measurement takes 150 s.
EC50 values were determined in triplicate utilizing compound dilution series. The data were determined at least in two independent tests. The data were proceeded by using the ActivityBase XE Runner software (IDBS) for curve fitting and calculation of the half-maximal effective concentration.

**Q.** With `O=C(N[C@H]1CCOc2ccccc21)c1cnc2c(-c3cc(Cl)cc(Cl)c3)csc2c1N1CCOCC1` [Compound 1] as the compound, how does the pEC50 read?
**A.** Its pEC50 is < 4.52.

**Q.** With `C[C@H](NC(=O)c1cnc2c(-c3cc(Cl)cc(Cl)c3)csc2c1N1CCOCC1)c1ccccc1` [Compound 2] as the compound, how does the pEC50 read?
**A.** Its pEC50 is < 4.52.

**Q.** `O=C(N[C@H]1CCc2ccccc21)c1cnc2c(-c3cc(Cl)cc(Cl)c3)csc2c1N1CCOCC1` [Compound 3] was tested. Which pEC50 did it give?
**A.** The pEC50 was < 4.52.

**Q.** With `O=C(N[C@H]1CCOc2ccccc21)c1cnc2c(-c3cccc(Cl)c3Cl)csc2c1N1CCOCC1` [Compound 4, (S)—N-(chroman-4-yl)-3-(2,3-dichlorophenyl)-7-morpholinothieno[3,2-b]pyridine-6-carboxamide] as the compound, how does the pEC50 read?
**A.** The pEC50 was 5.00 to 5.30.

**Q.** With `C[C@H](NC(=O)c1cnc2c(-c3cccc(Cl)c3Cl)csc2c1N1CCOCC1)c1ccccc1` [Compound 5] as the compound, how does the pEC50 read?
**A.** Its pEC50 is < 4.52.

**Q.** With `O=C(N[C@H]1CCc2ccccc21)c1cnc2c(-c3cccc(Cl)c3Cl)csc2c1N1CCOCC1` [Compound 6] as the compound, how does the pEC50 read?
**A.** Its pEC50 is 5.00 to 5.30.

**Q.** With `CN(C)c1c(C(=O)N[C@H]2CCOc3ccccc32)cnc2c(-c3cc(Cl)cc(Cl)c3)csc12` [Compound 7] as the compound, how does the pEC50 read?
**A.** The pEC50 was < 4.52.

**Q.** `C[C@H](NC(=O)c1cnc2c(-c3cc(Cl)cc(Cl)c3)csc2c1N(C)C)c1ccccc1` [Compound 8] was tested. Which pEC50 did it give?
**A.** Its pEC50 is < 4.52.

**Q.** How did the pEC50 turn out when `CN(C)c1c(C(=O)N[C@H]2CCc3ccccc32)cnc2c(-c3cc(Cl)cc(Cl)c3)csc12` [Compound 9] was run?
**A.** The pEC50 was < 4.52.

**Q.** How did the pEC50 turn out when `C[C@H](NC(=O)c1cnc2c(-c3cccc(Cl)c3Cl)csc2c1N(C)C)c1ccccc1` [Compound 11] was run?
**A.** The pEC50 was < 4.52.

**Q.** `CN(C)c1c(C(=O)N[C@H]2CCc3ccccc32)cnc2c(-c3cccc(Cl)c3Cl)csc12` [Compound 12] was tested. Which pEC50 did it give?
**A.** Its pEC50 is < 4.52.

**Q.** How did the pEC50 turn out when `O=C(N[C@H]1CCCc2ccccc21)c1cnc2c(-c3cccc(Cl)c3Cl)csc2c1N1CCOCC1` [Compound 13] was run?
**A.** Its pEC50 is 5.00 to 5.30.

**Q.** How did the pEC50 turn out when `O=C(N[C@H]1CCOc2ccccc21)c1cnc2c(-c3cc(F)cc(F)c3F)csc2c1N1CCOCC1` [Compound 15] was run?
**A.** The pEC50 was < 4.52.

**Q.** How did the pEC50 turn out when `O=C(N[C@H]1CCc2ccccc21)c1cnc2c(-c3cc(F)cc(F)c3F)csc2c1N1CCOCC1` [Compound 16] was run?
**A.** Its pEC50 is < 4.52.

**Q.** With `CN1CCN(c2c(C(=O)N[C@H]3CCCc4ccccc43)cnc3c(-c4cc(Cl)cc(Cl)c4)csc23)CC1` [Compound 18] as the compound, how does the pEC50 read?
**A.** Its pEC50 is < 4.52.

**Q.** `CN1CCN(c2c(C(=O)N[C@H]3CCOc4ccccc43)cnc3c(-c4cc(Cl)cc(Cl)c4)csc23)CC1` [Compound 19] was tested. Which pEC50 did it give?
**A.** The pEC50 was < 4.52.

**Q.** With `CN1CCN(c2c(C(=O)NC3CCOc4ccccc43)cnc3c(-c4cccc(Cl)c4Cl)csc23)CC1` (stereo not shown) [Compound 20] as the compound, how does the pEC50 read?
**A.** The pEC50 was < 4.52.

**Q.** `CN(C)c1c(C(=O)N[C@H]2CCCc3ccccc32)cnc2c(-c3cccc(Cl)c3Cl)csc12` [Compound 21] was tested. Which pEC50 did it give?
**A.** The pEC50 was < 4.52.

**Q.** How did the pEC50 turn out when `CN(C)c1c(C(=O)Nc2cccc3ccccc23)cnc2c(-c3cccc(Cl)c3Cl)csc12` [Compound 22] was run?
**A.** The pEC50 was < 4.52.

**Q.** With `CN(C)c1c(C(=O)N[C@H]2CCOc3ccccc32)cnc2c(-c3cc(F)cc(F)c3F)csc12` [Compound 23] as the compound, how does the pEC50 read?
**A.** Its pEC50 is < 4.52.

**Q.** How did the pEC50 turn out when `O=C(N[C@H]1CCOc2ccccc21)c1cnc2c(-c3cccc(F)c3F)csc2c1N1CCOCC1` [Compound 24] was run?
**A.** Its pEC50 is < 4.52.

**Q.** How did the pEC50 turn out when `CN(C)c1c(C(=O)N[C@H]2CCc3ccccc32)cnc2c(-c3cc(F)cc(F)c3F)csc12` [Compound 25] was run?
**A.** The pEC50 was < 4.52.

**Q.** `O=C(N[C@H]1CCOc2ccccc21)c1cnc2c(-c3cccc(Cl)c3Cl)csc2c1N1CC(F)(F)C1` [Compound 26] was tested. Which pEC50 did it give?
**A.** Its pEC50 is < 4.52.

**Q.** `O=C(NC1CCOc2ccccc21)c1cnc2c(-c3cccc(Cl)c3Cl)csc2c1N1CC(F)(F)C1` (stereo not shown) [Compound 27] was tested. Which pEC50 did it give?
**A.** Its pEC50 is < 4.52.

**Q.** `CN(C)c1c(C(=O)NC2CCOc3ccccc32)cnc2c(-c3cccc(Cl)c3Cl)csc12` (stereo not shown) [Compound 28] was tested. Which pEC50 did it give?
**A.** The pEC50 was < 4.52.

**Q.** `CN1CCN(c2c(C(=O)N[C@H]3CCc4ccccc43)cnc3c(-c4cc(Cl)cc(Cl)c4)csc23)CC1` [Compound 29] was tested. Which pEC50 did it give?
**A.** Its pEC50 is < 4.52.

**Q.** How did the pEC50 turn out when `CN1CCN(c2c(C(=O)NC3CCCc4ccccc43)cnc3c(-c4cc(Cl)cc(Cl)c4)csc23)CC1` (stereo not shown) [Compound 30] was run?
**A.** The pEC50 was < 4.52.

**Q.** How did the pEC50 turn out when `CN(C)c1c(C(=O)N[C@H]2CCCc3ccccc32)cnc2c(-c3cc(Cl)cc(Cl)c3)csc12` [Compound 31] was run?
**A.** The pEC50 was < 4.52.
